Test results published in patent US20090098652A1, “SELF ASSEMBLING PEPTIDE SYSTEMS AND METHODS” (Northwestern University, priority 2007, published 2009).
Where a SMILES comes first, the peptide text is derived from it. The star is where a group is joined. Palmitoyl = CCCCCCCCCCCCCCCC(=O)*

How the values were obtained:
P19 cells = conditions: flow cytometry; all tested concentrations
Protocol: In experiments conducted during development of embodiments of the present invention, P19 cells in suspension were allowed to form aggregates for four days and were then cultured with the histidine hexamer PA, with sequence [sequence]-palmitoyl for two weeks. […] P19 cells were allowed to form aggregates for seven days and then cultured with the DNA-PA complexes.

[1] = test system: P19 cells in suspension aggregates; assay: Transfection of P19 suspension aggregates with GFP plasmid, read by qPCR and Western blot; format: cell-based; conditions: comparison of PA system, peptide and Lipofectamine
Excerpt: In the figure, “peptide amphiphile” is the DNA-binding PA with sequence […](N^ε-palmitoyl) and “peptide” is a peptide with sequence […].
In some embodiments, the invention described here improves on this system by incorporating one or more peptides which are bioactive and direct the complex to the nucleus. It is designed, in some embodiments, to form an alpha helix which binds to the major groove of the double helix of DNA. In addition, it is a self-assembling peptide amphiphile (PA) which forms high aspect ratio nanostructures. When complexed with DNA, these nanostructures are, on average, smaller than the nanostructures produced by LIPOFECAMINE as determined by dynamic light scattering. The present invention is not limited to a particular mechanism. Indeed, an understanding of the mechanism is not necessary to practice the present invention. Nonetheless, it is contemplated that the system works by complexing and condensing the DNA through specific binding to the major groove and electrostatic screening. This DNA-PA complex is similar to the LIPOFECTAMINE complex, however it includes a peptide region containing a nuclear localization signal which directs the cell to move this complex through the cytoplasm and into the nucleus where the genes encoded in the DNA are subsequently expressed. […]

Molecule	toxicity to P19 cells (P19 cells)	transfection efficiency (in words) [1]	transfection efficiency (in words) ([1]; listed as peptide control)
CCCCCCCCCCCCCCCC(=O)NCCCC[C@H](NC(=O)[C@H](C)NC(=O)[C@H](C)NC(=O)[C@H](C)NC(=O)[C@H](CC(C)C)NC(=O)[C@H](CC(C)C)NC(=O)[C@H](CC(C)C)NC(=O)[C@H](CCCCN)NC(=O)[C@H](CC(N)=O)NC(=O)[C@@H](NC(=O)[C@H](C)NC(=O)[C@H](CO)NC(=O)[C@H](CCC(N)=O)NC(=O)[C@H](Cc1ccc(O)cc1)NC(=O)[C@@H](NC(=O)CNC(=O)[C@H](CC(C)C)NC(=O)[C@H](CCCNC(=N)N)NC(=O)[C@H](CCCCN)NC(=O)[C@H](C)NC(=O)[C@@H](NC(=O)[C@H](CCCCN)NC(=O)[C@@H](N)CCCNC(=N)N)[C@@H](C)O)C(C)C)[C@@H](C)CC)C(=O)O [DNA-binding PA] (H-RKTAKRLGVYQSAINKLLLAAAK(Palmitoyl)-OH)	nontoxic		
RKTAKRLGVYQSAINK [peptide]		lower transfection efficiency	poor results compared to both the lipofectamine system and the PA system
